# From ChEMBL document CHEMBL3046349, “Novel Mechanisms of Drug Action: Functional Selectivity at D2 Dopamine Receptors” (Med Chem Res, 2004)
# Organism: Rattus norvegicus
# Test: Selectivity ratio of K0.5 for Rattus norvegicus Sprague-Dawley (rat) striatum dopamine D2 receptor to K0.5 for Sprague-Dawley Rattus norvegicus (rat) striatum dopamine D1 receptor
# Assay type: tissue-based
smiles,measurement,value
Oc1cc2c(cc1O)[C@H]1c3ccccc3CN[C@@H]1CC2 (relative stereo),Ratio,10
